Data as given in ChEMBL document CHEMBL1140018, “Synthesis and structure-activity relationship of imidazo(1,2-a)thieno(3,2-e)pyrazines as IKK-beta inhibitors” (Bioorg Med Chem Lett, 2007).
pEC50, pIC50: −log10 of the molar value.

Key:
[1] = Cytotoxicity against Jurkat cells by Alamar blue assay; settings: human
[2] = molecular target: T1, Inhibitor of nuclear factor kappa-B kinase subunit alpha (Homo sapiens, UniProt O15111)
T1 sequence (O15111 whole entry): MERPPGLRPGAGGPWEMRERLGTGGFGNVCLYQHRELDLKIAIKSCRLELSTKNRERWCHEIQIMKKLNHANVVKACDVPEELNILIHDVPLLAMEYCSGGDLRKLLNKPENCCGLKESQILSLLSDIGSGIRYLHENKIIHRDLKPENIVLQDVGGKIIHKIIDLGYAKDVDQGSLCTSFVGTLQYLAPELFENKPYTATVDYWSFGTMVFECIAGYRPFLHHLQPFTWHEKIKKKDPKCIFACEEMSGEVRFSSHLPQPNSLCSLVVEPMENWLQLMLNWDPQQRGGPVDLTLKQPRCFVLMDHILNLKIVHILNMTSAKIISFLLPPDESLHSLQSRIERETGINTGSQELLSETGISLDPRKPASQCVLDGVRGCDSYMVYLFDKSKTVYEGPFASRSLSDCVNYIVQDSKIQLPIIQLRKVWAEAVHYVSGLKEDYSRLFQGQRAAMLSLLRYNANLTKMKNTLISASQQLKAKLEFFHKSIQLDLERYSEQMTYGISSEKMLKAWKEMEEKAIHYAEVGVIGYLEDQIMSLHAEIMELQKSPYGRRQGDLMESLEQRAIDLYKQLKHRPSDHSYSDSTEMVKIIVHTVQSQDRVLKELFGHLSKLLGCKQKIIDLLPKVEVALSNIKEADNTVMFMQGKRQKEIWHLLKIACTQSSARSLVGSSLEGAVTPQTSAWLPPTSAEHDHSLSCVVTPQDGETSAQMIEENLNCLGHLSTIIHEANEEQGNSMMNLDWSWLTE

Jurkat = assay: Inhibition of TNF-alpha-induced response in Jurkat cells; settings: Homo sapiens
[3] = molecular target: T2, Inhibitor of nuclear factor kappa-B kinase subunit beta (Homo sapiens, UniProt O14920)
T2 sequence (O14920 whole entry): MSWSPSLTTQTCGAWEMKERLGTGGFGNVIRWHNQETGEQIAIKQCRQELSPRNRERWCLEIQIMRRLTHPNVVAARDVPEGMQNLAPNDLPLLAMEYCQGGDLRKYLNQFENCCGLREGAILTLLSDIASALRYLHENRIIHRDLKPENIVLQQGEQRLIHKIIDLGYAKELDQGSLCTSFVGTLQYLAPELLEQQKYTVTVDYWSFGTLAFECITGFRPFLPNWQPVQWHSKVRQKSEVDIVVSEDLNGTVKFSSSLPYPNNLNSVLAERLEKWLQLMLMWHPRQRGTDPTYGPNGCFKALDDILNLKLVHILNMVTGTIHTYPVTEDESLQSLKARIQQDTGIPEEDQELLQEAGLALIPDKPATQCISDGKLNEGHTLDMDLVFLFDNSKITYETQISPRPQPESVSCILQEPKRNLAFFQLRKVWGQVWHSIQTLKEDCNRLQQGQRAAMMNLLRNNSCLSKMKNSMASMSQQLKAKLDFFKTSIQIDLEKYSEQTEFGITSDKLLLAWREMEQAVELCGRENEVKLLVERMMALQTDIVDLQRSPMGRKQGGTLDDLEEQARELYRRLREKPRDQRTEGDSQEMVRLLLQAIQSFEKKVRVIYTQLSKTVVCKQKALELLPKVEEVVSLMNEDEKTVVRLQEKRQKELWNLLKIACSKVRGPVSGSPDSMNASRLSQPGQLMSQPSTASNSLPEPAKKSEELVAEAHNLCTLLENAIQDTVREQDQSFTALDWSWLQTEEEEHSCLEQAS

Liver microsomes = assay: Metabolic stability in human liver microsomes; assay type: ADME, Microsome
[4] = Tmax in mouse at 10 mg/kg, po; assay type: ADME, organism-based; design: dose 10 mg/kg, route oral; settings: in vivo
PBMC = assay: Inhibition of LPS-induced TNFalpha production in PBMC; assay type: functional, cell-based; settings: Homo sapiens
Liver = assay: Metabolic stability in mouse liver microsomes; assay type: ADME, Microsome

pIC50 [2] | pEC50 (Jurkat) | pIC50 [3] | Stability (Liver microsomes) [nmol/mg/min] | Tmax [4] [h] | Stability (Liver) [nmol/mg/min] | Structure (SMILES) | CC50 ([1]; Jurkat cells) [nM] | CC50 ([1]; jurkat) [nM] | pEC50 (PBMC)
6.19 | 5.17 | 7.35 |  |  |  | CNc1nc2cc(-c3cccc(CCN)c3)sc2n2c(C)cnc12 | 21000 |  | 
5.90 | < 4.00 | 7.89 |  |  |  | CNc1nc2cc(-c3cccc(CC(N)C(=O)O)c3)sc2n2c(C)cnc12 (stereo unspecified) | > 100000 |  | 
6.03 | 5.34 | 7.54 |  |  |  | Cc1cnc2c(NCCN)nc3cc(-c4ccoc4)sc3n12 | > 100000 |  | 
5.84 | 5.10 | 8.00 |  |  |  | Cc1cnc2c(NCCN)nc3cc(-c4cn[nH]c4)sc3n12 | 46000 |  | 
5.70 | 5.24 | 6.59 |  |  |  | CCNc1nc2cc(-c3ccccc3)sc2n2c(C)cnc12 | > 100000 |  | 
6.04 | 6.02 | 7.68 |  |  |  | Cc1cnc2c(NCCN)nc3cc(-c4cccc(CCO)c4)sc3n12 | 13000 |  | 
5.10 | 5.50 | 6.64 |  |  |  | Cc1cnc2c(NCCNC=O)nc3cc(-c4ccccc4)sc3n12 | > 100000 |  | 
5.92 | 6.09 | 7.72 |  |  |  | CNc1nc2cc(-c3cccc(CCC(N)=O)c3)sc2n2c(C)cnc12 | > 100000 |  | 
5.93 | < 4.52 | 7.02 |  |  |  | Cc1cnc2c(NCCN(C)C)nc3cc(-c4ccccc4)sc3n12 | > 100000 |  | 
5.41 | < 4.00 | 6.35 |  |  |  | Cc1cnc2c(NCCN)nc3cc(C4=NCN=C4)sc3n12 | 38000 |  | 
5.59 | 4.53 | 6.85 |  |  |  | Cc1cnc2c(NCCN)nc3cc(-c4cccnc4)sc3n12 | 49000 |  | 
5.87 | 5.30 | > 8.05 |  |  |  | CNc1nc2cc(-c3cccc(CCC(=O)O)c3)sc2n2c(C)cnc12 | > 100000 |  | 
5.55 | < 4.52 | 7.02 |  |  |  | COc1ccc(-c2cc3nc(NCCN)c4ncc(C)n4c3s2)cc1 | > 100000 |  | 
6.09 | 5.71 | 7.68 |  |  |  | CNc1nc2cc(-c3cccc(CCNC(C)=O)c3)sc2n2c(C)cnc12 | > 100000 |  | 
6.16 | 4.53 | 7.36 |  |  |  | COc1cccc(-c2cc3nc(NCCN)c4ncc(C)n4c3s2)c1 | 3500 |  | 
6.36 | 6.04 | 8.15 |  |  |  | CNc1nc2cc(-c3cccc(CCNS(N)(=O)=O)c3)sc2n2c(C)cnc12 | > 100000 |  | 
5.53 | 4.22 | 6.57 |  |  |  | Cc1cnc2c(NCCN)nc3cc(-c4ccncc4)sc3n12 | > 100000 |  | 
5.90 | 5.10 | 6.60 |  |  |  | Cc1cnc2c(NCCN)nc3cc(-c4ccc[nH]4)sc3n12 | 7900 |  | 
5.39 | < 5.52 | 6.28 |  |  |  | CNc1nc2ccsc2n2c(C)cnc12 | > 100000 |  | 
< 4.00 | < 4.00 | < 6.00 |  |  |  | COc1nc2cc(-c3ccccc3)sc2n2c(C)cnc12 | > 100000 |  | 
4.84 | 4.18 | 6.72 |  |  |  | CNc1nc2cc(-c3cccc(C(=O)O)c3)sc2n2c(C)cnc12 | > 100000 |  | 

pIC50 [2] | pEC50 (Jurkat) | pIC50 [3] | Stability (Liver microsomes) [nmol/mg/min] | Tmax [4] [h] | Stability (Liver) [nmol/mg/min] | Structure (SMILES) | CC50 ([1]; Jurkat cells) [nM] | CC50 ([1]; jurkat) [nM] | pEC50 (PBMC)
< 4.60 | < 4.00 | 6.44 |  |  |  | Cc1cnc2c(NCC(N)=O)nc3cc(-c4ccccc4)sc3n12 | > 100000 |  | 
6.29 | 5.58 | 7.64 |  |  |  | CNc1nc2cc(-c3cccc(CNCC(N)=O)c3)sc2n2c(C)cnc12 | > 100000 |  | 
6.38 | 6.07 |  |  |  |  | CNCCNc1nc2cc3ccccc3cc2n2c(C)cnc12 |  |  | 
6.35 | 5.62 | 8.10 |  |  |  | Cc1cnc2c(NCCN)nc3cc(-c4cccc(CO)c4)sc3n12 |  | 7000 | 
5.19 | 4.77 | 6.43 |  |  |  | Cc1cnc2c(N)nc3cc(-c4ccccc4)sc3n12 | > 100000 |  | 
5.36 | 4.81 | 6.89 |  |  |  | Cc1cnc2c(NCCN)nc3cc(-c4ccccc4CO)sc3n12 | > 100000 |  | 
5.46 | 5.14 | 7.07 |  |  |  | Cc1cnc2c(NCCO)nc3cc(-c4ccccc4)sc3n12 | > 100000 |  | 
5.97 | 5.72 | 7.29 |  |  |  | CNC(=O)CNCCc1cccc(-c2cc3nc(NC)c4ncc(C)n4c3s2)c1 | 50000 |  | 
6.11 | 5.63 | 7.42 |  |  |  | CNc1nc2cc(-c3cccc(CNC(C)=O)c3)sc2n2c(C)cnc12 | > 100000 |  | 
4.89 | < 4.00 | 6.55 |  |  |  | COc1ccccc1-c1cc2nc(NCCN)c3ncc(C)n3c2s1 | 3500 |  | 
6.59 | 6.35 | 7.85 |  |  |  | CNc1nc2cc(-c3cccc(C[C@H](N)C(N)=O)c3)sc2n2c(C)cnc12 | > 100000 |  | 
< 4.52 | 4.45 | 6.54 |  |  |  | CNc1nc2cc(-c3cccc(C(N)=O)c3)sc2n2c(C)cnc12 | > 100000 |  | 
5.15 | 4.99 | 6.54 |  |  |  | CC(=O)NCCNc1nc2cc(-c3ccccc3)sc2n2c(C)cnc12 | > 100000 |  | 
5.91 | < 4.00 | 6.72 |  |  |  | Cc1cnc2c(NCCN)nc3cc(-c4ccccn4)sc3n12 | 13000 |  | 
6.72 | 6.16 | 7.57 |  |  |  | CNc1nc2cc(-c3cccc(C[C@@H](N)C(N)=O)c3)sc2n2c(C)cnc12 | 90000 |  | 
6.77 | 6.57 | 8.52 | 0.035 | 1 | 0.231 | CNc1nc2cc(-c3cccc(CNS(N)(=O)=O)c3)sc2n2c(C)cnc12 | > 100000 |  | 7.02
5.95 | 4.73 | 6.64 |  |  |  | Cc1cnc2c(NCCN)nc3cc(-c4nccs4)sc3n12 | 5900 |  | 
4.92 | < 4.00 | 6.77 |  |  |  | Cc1cnc2c(NCCN)nc3ccsc3n12 | > 100000 |  | 
5.63 | 4.39 | 7.64 |  |  |  | Cc1cnc2c(NCCN)nc3cc(-c4ccc(CO)cc4)sc3n12 | 14000 |  | 
5.11 | < 4.52 | 6.31 |  |  |  | CNc1nc2cc(C)sc2n2c(C)cnc12 | > 100000 |  | 
